Values of other authors in patent US7906649B2, “Aminocyclohexanes as dipeptidyl peptidase-IV inhibitors for the treatment of diabetes” (Merck Sharp & Dohme Corp., priority 2005, dated 2011).

Assays:
[1] = tested on: cardiac allograft survival; settings: rats; survival doubled from day 7
hematopoiesis = settings: mouse, cyclophosphamide-induced neutropenia
[2] = tested on: GRF degradation in plasma

In the case of CC(C)N1CCC(c2ccccc2)(c2ccccc2)CC1 [Prodipine, Pro-Pro-diphenyl-phosphonate], the cardiac allograft survival [1] is listed as 14 day.
For CC(C)[C@H](N)C(=O)N1CCC[C@H]1B(O)O [Val-Boro-Pro], the effect on hematopoiesis (hematopoiesis) is listed as “stimulated hematopoiesis”.
For diprotin A, the “degradation of GRF to GRF[3-44] in plasma” value [2] is listed as “prevented”.
